Measured values taken from ChEMBL document CHEMBL4000191, “Antileishmanial evaluation of clubbed bis(indolyl)-pyridine derivatives: One-pot synthesis, in vitro biological evaluations and in silico ADME prediction” (Bioorg Med Chem Lett, 2017).
Values after ≈ are worked out from the molar mass of the structure shown.

What was measured:
[1] = tested on: Bacillus subtilis; assay: Antibacterial activity against Bacillus subtilis NCIM 2063 by standard agar method; type: functional
[2] = tested on: Leishmania donovani; assay: Antileishmanial activity against Leishmania donovani NHOM/IN/80/DD8 promastigotes after 72 hrs by MTT assay; type: functional; details: NHOM/IN/80/DD8, 72 h
[3] = tested on: Escherichia coli; assay: Antibacterial activity against Escherichia coli NCIM 2256 by standard agar method; type: functional
[4] = tested on: Pseudomonas aeruginosa; assay: Antibacterial activity against Pseudomonas aeruginosa NCIM 2036 by standard agar method; type: functional
[5] = tested on: Staphylococcus aureus; assay: Antibacterial activity against Staphylococcus aureus NCIM 2901 by standard agar method; type: functional
[6] = tested on: HeLa; assay: Cytotoxic activity against human HeLa cells up to 300 ug/mL after 72 hrs by MTT assay; type: cell-based
[7] = tested on: Leishmania chagasi; assay: Antileishmanial activity against Leishmania donovani chagasi MHOM/BR/74/PP75 promastigotes after 72 hrs by phase contrast microscopic method; type: functional; details: MHOM/BR/74/PP75, 72 h
[8] = tested on: Leishmania donovani; assay: Antileishmanial activity against Leishmania donovani; type: functional

Structure (SMILES)	MIC [1] [µg/mL]	IC50 [2] [µM]	MIC [3] [µg/mL]	MIC [4] [µg/mL]	MIC [5] [µg/mL]	Activity [6]	IC50 [7] [µM]	IC50 [8] [µM]
Clc1ccc(-c2cc(-c3c[nH]c4ccccc34)nc(-c3c[nH]c4ccccc34)c2)cc1	77.2 (≈ 184 µM)	166	90.5 (≈ 216 µM)	115 (≈ 275 µM)	183 (≈ 435 µM)	–	–	–
O=C(O)c1ccccc1-c1cc(-c2c[nH]c3ccccc23)nc(-c2c[nH]c3ccccc23)c1	70.4 (≈ 164 µM)	118	71.5 (≈ 166 µM)	122 (≈ 284 µM)	129 (≈ 300 µM)	–	–	–
COc1cc(-c2cc(-c3c[nH]c4ccccc34)nc(-c3c[nH]c4ccccc34)c2)cc(OC)c1OC	79.9 (≈ 168 µM)	136	192 (≈ 403 µM)	197 (≈ 414 µM)	179 (≈ 377 µM)	–	–	–
COc1ccc(-c2cc(-c3c[nH]c4ccccc34)nc(-c3c[nH]c4ccccc34)c2)cc1OC	55.4 (≈ 124 µM)	192	191 (≈ 428 µM)	180 (≈ 404 µM)	194 (≈ 436 µM)	–	–	–
c1ccc(-c2cc(-c3c[nH]c4ccccc34)nc(-c3c[nH]c4ccccc34)c2)cc1	89.6 (≈ 232 µM)	142	55.4 (≈ 144 µM)	149 (≈ 387 µM)	158 (≈ 410 µM)	–	–	–
COc1ccc(-c2cc(-c3c[nH]c4ccccc34)nc(-c3c[nH]c4ccccc34)c2)cc1	81.5 (≈ 196 µM)	99.5	46.6 (≈ 112 µM)	120 (≈ 288 µM)	165 (≈ 398 µM)	Non-Toxic	–	–
Oc1ccc(-c2cc(-c3c[nH]c4ccccc34)nc(-c3c[nH]c4ccccc34)c2)cc1O	121 (≈ 291 µM)	287	158 (≈ 379 µM)	224 (≈ 535 µM)	191 (≈ 458 µM)	–	–	–
Clc1cccc(Cl)c1-c1cc(-c2c[nH]c3ccccc23)nc(-c2c[nH]c3ccccc23)c1	96.5 (≈ 212 µM)	102	87.5 (≈ 193 µM)	175 (≈ 386 µM)	178 (≈ 391 µM)	–	–	–
COC(=O)[C@@H]1C[C@@]23CCCN4CC[C@@]5(c6ccccc6N(C(=O)OC)[C@]15CC2)[C@H]43	–	–	–	–	–	–	60.9	–
COc1ccc(OC)c(-c2cc(-c3c[nH]c4ccccc34)nc(-c3c[nH]c4ccccc34)c2)c1	79.5 (≈ 178 µM)	260	133 (≈ 299 µM)	182 (≈ 408 µM)	158 (≈ 356 µM)	–	–	–
CN(C)c1ccc(-c2cc(-c3c[nH]c4ccccc34)nc(-c3c[nH]c4ccccc34)c2)cc1	103 (≈ 240 µM)	112	95.9 (≈ 224 µM)	149 (≈ 349 µM)	229 (≈ 534 µM)	–	–	–
COc1ccc(-c2cc(-c3c[nH]c4ccccc34)nc(-c3c[nH]c4ccccc34)c2)c(OC)c1	88.7 (≈ 199 µM)	600	52.2 (≈ 117 µM)	188 (≈ 423 µM)	123 (≈ 276 µM)	–	–	–
Clc1ccccc1-c1cc(-c2c[nH]c3ccccc23)nc(-c2c[nH]c3ccccc23)c1	64.8 (≈ 154 µM)	123	41.4 (≈ 98.5 µM)	150 (≈ 358 µM)	166 (≈ 394 µM)	Non-Toxic	–	–
COc1cc(-c2cc(-c3c[nH]c4ccccc34)nc(-c3c[nH]c4ccccc34)c2)ccc1O	95.7 (≈ 222 µM)	169	129 (≈ 300 µM)	165 (≈ 383 µM)	221 (≈ 511 µM)	–	–	–
CC1(C)S[C@@H]2[C@H](NC(=O)[C@H](N)c3ccccc3)C(=O)N2[C@H]1C(=O)O [AMPICILLIN]	250 (≈ 715 µM)	–	100 (≈ 286 µM)	100 (≈ 286 µM)	250 (≈ 715 µM)	–	–	–
O=C(O)c1cn(C2CC2)c2cc(N3CCNCC3)c(F)cc2c1=O [CIPROFLOXACIN]	–	–	25 (≈ 75.4 µM)	50 (≈ 151 µM)	–	–	–	–
C[n+]1c2ccccc2cc2[n-]c3ccccc3c21 [CRYPTOLEPINE]	–	–	–	–	–	–	–	1.6
